± gives the standard deviation of the averaged measurements.
Tests used:
Settings in all cases: 72 h
Caco-2 [1] = test: cell viability relative to DMSO; higher = less toxic
Calu-3 [2] = test: as above
Vero E6 [3] = test: as above
U2OS [4] = test: as above
HepG2 [5] = test: as above
Caco-2 [6] = test: relative viability EC50 (midpoint between 100% and the lowest measured viability); higher = less toxic
Calu-3 [7] = test: as above
Vero E6 [8] = test: as above
U2OS [9] = test: as above
HepG2 [10] = test: as above
Caco-2 [11] = test: drug sensitivity score (DSS) for viability; higher = more toxic; extreme values may be limits of the assay
Calu-3 [12] = test: as above
Vero E6 [13] = test: as above
U2OS [14] = test: as above
HepG2 [15] = test: as above

Row | SMILES | cell viability (Caco-2 [1]; 1 nM) [%] | cell viability (Caco-2 [1]; 10 nM) [%] | cell viability (Caco-2 [1]; 100 nM) [%] | cell viability (Caco-2 [1]; 1000 nM) [%] | cell viability (Caco-2 [1]; 10000 nM) [%] | cell viability (Calu-3 [2]; 1 nM) [%] | cell viability (Calu-3 [2]; 10 nM) [%] | cell viability (Calu-3 [2]; 100 nM) [%] | cell viability (Calu-3 [2]; 1000 nM) [%] | cell viability (Calu-3 [2]; 10000 nM) [%] | cell viability (Vero E6 [3]; 1 nM) [%] | cell viability (Vero E6 [3]; 10 nM) [%] | cell viability (Vero E6 [3]; 100 nM) [%] | cell viability (Vero E6 [3]; 1000 nM) [%] | cell viability (Vero E6 [3]; 10000 nM) [%] | cell viability (U2OS [4]; 1 nM) [%] | cell viability (U2OS [4]; 10 nM) [%] | cell viability (U2OS [4]; 100 nM) [%] | cell viability (U2OS [4]; 1000 nM) [%] | cell viability (U2OS [4]; 10000 nM) [%] | cell viability (HepG2 [5]; 1 nM) [%] | cell viability (HepG2 [5]; 10 nM) [%] | cell viability (HepG2 [5]; 100 nM) [%] | cell viability (HepG2 [5]; 1000 nM) [%] | cell viability (HepG2 [5]; 10000 nM) [%] | relative viability EC50 (Caco-2 [6]) [µM] | relative viability EC50 (Calu-3 [7]) [µM] | relative viability EC50 (Vero E6 [8]) [µM] | relative viability EC50 (U2OS [9]) [µM] | relative viability EC50 (HepG2 [10]) [µM] | drug sensitivity score (Caco-2 [11]) | drug sensitivity score (Calu-3 [12]) | drug sensitivity score (Vero E6 [13]) | drug sensitivity score (U2OS [14]) | drug sensitivity score (HepG2 [15])
1 | CSc1ccc(C(=O)/C=C/c2cc(C)c(OC(C)(C)C(=O)O)c(C)c2)cc1 [elafibranor] | 99.5 | 92.5 | 103 | 90.5 | 84.6 | 101 | 97 | 100 | 108 | 114 | 90.8 | 97 | 89.5 | 91.1 | 98.5 | 99.7 | 94 | 97.7 | 98.1 | 94.3 | 101 | 108 | 93.5 | 99.1 | 96.3 | > 10 | > 10 | > 10 | > 10 | > 10 | 1 | 0 | 0 | 0 | 0
2 | CCOC(=O)[C@@H](C)Oc1cccc2c(=O)n(CC(=O)Nc3ccc4c(c3)OCCO4)ccc12 | 90.5 | 113 | 95.5 | 101 | 83.5 | 92.5 | 88.6 | 80.8 | 95.5 | 89.8 | 101 | 99.4 | 99 | 98.5 | 99.1 | 98.3 | 101 | 95.8 | 105 | 88.9 | 106 | 92.7 | 98.6 | 91.4 | 102 | > 10 | > 10 | > 10 | > 10 | > 10 | 0.3 | 0 | 0 | 0 | 0
3 | Cc1cccc(Nc2cc(Cl)nc(SCC(=O)O)n2)c1C [pirinixic-acid] | 90 | 95.2 | 98.8 | 98.1 | 87.2 | 99.9 | 102 | 93.7 | 114 | 97.4 | 100 | 95.3 | 98.8 | 95.9 | 100 | 103 | 104 | 95.7 | 102 | 97.1 | 98.8 | 99.4 | 94.8 | 99.2 | 101 | > 10 | > 10 | > 10 | > 10 | > 10 | 0 | 0 | 0 | 0 | 0
4 | C[C@@H]1COCCN1c1cc(C2(S(C)(=O)=O)CC2)nc(-c2cccc3[nH]ccc23)n1 [AZ20] | 88.1 | 96.3 | 89.5 | 84.1 | 23.1 | 89.4 | 97 | 91.8 | 82.3 | 34.6 | 102 | 98.2 | 98.5 | 85.4 | 40 | 97.4 | 101 | 95.9 | 94.3 | 9.3 | 110 | 110 | 95.9 | 65.6 | 31.8 | 1.71 | 1.57 | 1.57 | 2.66 | 0.973 | 6.8 | 6 | 5.6 | 5.9 | 7.8
5 | Cc1cc(O)c2c(c1)C(=O)c1cc(O)cc(O)c1C2=O [emodin] | 95.4 | 91 | 92.8 | 93.9 | 97 | 93.6 | 104 | 95 | 94.2 | 102 | 103 | 95 | 97.1 | 100 | 106 | 94.2 | 103 | 93.8 | 101 | 103 | 105 | 96.7 | 105 | 98.5 | 106 | > 10 | > 10 | > 10 | > 10 | > 10 | 0 | 0 | 0 | 0 | 0
6 | COc1ccc2c(c1)CN(C)CC2c1ccc(Cl)c(Cl)c1 (stereo not given) [diclofensine] | 96.6 | 94 | 86 | 95.6 | 83.5 | 103 | 106 | 107 | 101 | 87.9 | 96 | 99.3 | 94.5 | 95.7 | 91.1 | 99.3 | 103 | 93.3 | 100 | 93.2 | 101 | 98.8 | 95.9 | 103 | 97.2 | > 10 | > 10 | > 10 | > 10 | > 10 | 0.6 | 0 | 0 | 0 | 0
7 | CO[C@@H]1[C@H](O)[C@@H](CO)O[C@H]1n1cnc2c(NC3CCCCC3)ncnc21 [SDZ-WAG-994] | 84.7 | 95.4 | 90 | 103 | 99.5 | 88.5 | 89.5 | 83.3 | 88.3 | 109 | 99.5 | 94.7 | 97.1 | 95.2 | 109 | 93.6 | 100 | 97 | 103 | 108 | 88 | 93.4 | 104 | 93 | 101 | > 10 | > 10 | > 10 | > 10 | > 10 | 0 | 0 | 0 | 0 | 0
8 | C[C@@H]1O[C@@H](OC[C@H]2O[C@@H](Oc3c(-c4ccc(O)c(O)c4)oc4cc(O)cc(O)c4c3=O)[C@H](O)[C@@H](O)[C@@H]2O)[C@H](O)[C@H](O)[C@H]1O [rutin] | 118 | 98.9 | 115 | 101 | 113 | 107 | 90.4 | 102 | 85.9 | 101 | 98.6 | 100 | 98.8 | 111 | 104 | 101 | 107 | 96.1 | 98.5 | 102 | 104 | 101 | 86 | 106 | 98.1 | > 10 | > 10 | > 10 | > 10 | > 10 | 0 | 0 | 0 | 0 | 0
9 | Clc1ccccc1CN1CCc2sccc2C1 [ticlopidine] | 91.9 | 102 | 93.5 | 93.4 | 99.8 | 101 | 98.3 | 99.6 | 91.7 | 101 | 89 | 97.9 | 98 | 95.6 | 105 | 98.9 | 91.5 | 97.2 | 102 | 108 | 97.5 | 93 | 107 | 106 | 94.9 | > 10 | > 10 | > 10 | > 10 | > 10 | 0 | 0 | 0 | 0 | 0
10 | CC(N)Cc1c[nH]c2ccc(OCc3cccs3)cc12 (stereo not given) [BW-723C86] | 99.8 | 97.7 | 93 | 94.8 | 98.8 | 109 | 95.6 | 98.6 | 104 | 76.5 | 96 | 94.9 | 95.1 | 96.1 | 89.1 | 102 | 98.2 | 99 | 98.2 | 96.9 | 102 | 107 | 96.8 | 95.5 | 81 | > 10 | > 10 | > 10 | > 10 | > 10 | 0 | 0.7 | 0 | 0 | 1
11 | N[C@@H](C(=O)O)c1ccc(C(=O)O)c(O)c1 (racemic) [4-carboxy-3-hydroxyphenylglycine-(RS)] | 98.6 | 97.4 | 92.6 | 110 | 103 | 94.7 ± 5.6 | 91.5 ± 6.3 | 95.95 ± 0.35 | 94.5 ± 1.1 | 99.5 ± 2 | 101.5 ± 0.78 | 98.35 ± 0.49 | 97.35 ± 0.92 | 102 ± 5.4 | 105 ± 12 | 97.1 ± 3 | 99.4 ± 2.1 | 97.8 ± 3.1 | 98.7 ± 4.6 | 105 ± 1.8 | 99.7 ± 6.4 | 113 ± 12 | 104 ± 6.9 | 107 ± 4 | 98.7 ± 16 | > 10 | > 10 | > 10 | > 10 | > 10 | 0 | 0 | 0 | 0 | 0
12 | COc1ccc(N(C)c2nc(C)nc3ccccc23)cc1 [verubulin] | 103 | 76.2 | 40.5 | 38.3 | 34.6 | 94.9 | 77.2 | 46.6 | 42.3 | 40.3 | 93 | 32.6 | 21.4 | 23.9 | 27.9 | 102 | 72.6 | 17.3 | 18 | 18.3 | 108 | 52.4 | 34.3 | 36.3 | 41.4 | 0.0156 | 0.0151 | 0.0037 | 0.0133 | 0.0069 | 22.4 | 20.2 | 33.5 | 29.6 | 26.2

From the supplement of paper PMC13380429
